In US12590124B2, “Peptide with neutralizing activity against severe acute respiratory syndrome coronavirus 2” (CAREGEN CO, LTD., priority 2020, dated 2026):
Read-outs that look alike come from different tables or passages of the source. Where no end group is shown, it is not given here.

Tested on: SARS-CoV-2
Conditions: 1 h

Substance | Inhibition rate (2.5 mM) | Inhibition rate (10 mM)
KFNRRHH [SEQ ID NO: 2, KFNRRHH] | 51% | 96%
KYLLVHRPYYRR [SEQ ID NO: 3, KYLLVHRPYYRR] | 98% | 98%
RSYMTTHHEQF [SEQ ID NO: 1, RSYMTTHHEQF] | 21% | 100%
WVPYQARVPYPR [SEQ ID NO: 4, WVPYQARVPYPR] | 55% | 98%
